Laboratory results published in ChEMBL document CHEMBL4622963, “Optimization of Nicotinamides as Potent and Selective IRAK4 Inhibitors with Efficacy in a Murine Model of Psoriasis” (ACS Med Chem Lett, 2020).

Key:
[1] = target: T1, Interleukin-1 receptor-associated kinase 4 (Homo sapiens, UniProt Q9NWZ3); assay: Inhibition of IRAK4 (unknown origin) using FL-IPTSPITTTYFFFKKK peptide and ATP as substrate incubated for 60 mins by fluorescence based caliper assay
T1 sequence (Q9NWZ3 whole entry): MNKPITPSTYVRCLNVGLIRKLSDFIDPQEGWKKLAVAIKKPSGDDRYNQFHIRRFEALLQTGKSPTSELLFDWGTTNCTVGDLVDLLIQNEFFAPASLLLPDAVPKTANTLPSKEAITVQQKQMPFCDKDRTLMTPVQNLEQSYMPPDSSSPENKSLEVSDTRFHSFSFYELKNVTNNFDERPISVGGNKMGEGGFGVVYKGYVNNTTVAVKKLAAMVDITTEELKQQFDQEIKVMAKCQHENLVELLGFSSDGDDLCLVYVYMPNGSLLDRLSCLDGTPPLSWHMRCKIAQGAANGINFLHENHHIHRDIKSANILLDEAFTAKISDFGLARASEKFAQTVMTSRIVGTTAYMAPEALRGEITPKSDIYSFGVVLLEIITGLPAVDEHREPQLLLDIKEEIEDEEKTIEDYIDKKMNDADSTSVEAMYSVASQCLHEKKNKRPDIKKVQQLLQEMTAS

[2] = target: T1, Interleukin-1 receptor-associated kinase 4; assay: Inhibition of IRAK4 in human PBMC assessed as inhibition of LTA-induced IL-6 production preincubated for 30 mins followed by LTA-stimulation and measured after 5 hrs by ELISA; assay type: cell-based
[3] = Stability in human liver microsomes assessed as parent compound remaining; assay type: ADME, Microsome
[4] = Stability in mouse liver microsomes assessed as parent compound remaining measured after 10 mins; assay type: ADME, Microsome; settings: read-out: Stability
[5] = organism: Homo sapiens; assay: Selectivity index, ratio of IC50 for N-terminal His6-tagged human full length recombinant LCK expressed in baculovirus infected Sf21 cells to IC50 for IRAK4 (unknown origin)
[6] = Permeability across apical to basolateral side in human Caco2 cells; settings: Caco-2
[7] = target: Cytochrome P450 3A4 (Homo sapiens, UniProt P08684); assay: Inhibition of CYP3A4 (unknown origin); assay type: ADME
Chain of Cytochrome P450 3A4 (P08684 whole entry): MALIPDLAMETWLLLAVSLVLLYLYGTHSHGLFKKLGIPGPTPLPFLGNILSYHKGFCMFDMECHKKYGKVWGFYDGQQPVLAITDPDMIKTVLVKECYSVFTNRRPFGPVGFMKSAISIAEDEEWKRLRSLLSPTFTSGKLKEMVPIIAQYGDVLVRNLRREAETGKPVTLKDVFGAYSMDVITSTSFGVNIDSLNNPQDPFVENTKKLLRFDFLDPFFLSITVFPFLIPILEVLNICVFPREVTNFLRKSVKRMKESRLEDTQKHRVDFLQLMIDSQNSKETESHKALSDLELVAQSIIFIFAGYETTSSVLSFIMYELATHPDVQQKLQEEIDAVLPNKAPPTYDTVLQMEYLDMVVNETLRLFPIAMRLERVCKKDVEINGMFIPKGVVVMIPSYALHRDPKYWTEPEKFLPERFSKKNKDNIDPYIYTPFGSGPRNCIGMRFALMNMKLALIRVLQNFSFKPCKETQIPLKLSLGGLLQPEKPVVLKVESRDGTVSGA

[8] = tested on: Mus musculus; assay: Protection against imiquimod-induced psoriasis in C57BL/6 mouse assessed as inhibition of skin scaling at 3 mg/kg, po dosed via gavage once daily and measured on day 6 relative to control; assay type: functional; settings: C57BL/6, po, 144 h
[9] = tested on: Mus musculus; assay: Protection against imiquimod-induced psoriasis in C57BL/6 mouse assessed as inhibition of skin erythema level at 3 mg/kg, po dosed via gavage once daily and measured on day 6 relative to control; assay type: functional; settings: C57BL/6, po, 144 h
[10] = target: T1, Interleukin-1 receptor-associated kinase 4; assay: Inhibition of IRAK4 in human whole blood assessed as inhibition of LTA-induced IL-6 production preincubated for 30 mins followed by LTA-stimulation and measured after 5 hrs by ELISA; assay type: tissue-based
[11] = organism: Homo sapiens; assay: Selectivity index, ratio of IC50 for recombinant N-terminal GST-tagged human cKit (544 to end residues) expressed in baculovirus infected Sf21 cells to IC50 for IRAK4 (unknown origin)
[12] = Clearance in mouse at 2 mg/kg, iv administered as infusion or 3 mg/kg, po via gavage measured up to 24 hrs by LC-MS analysis; assay type: ADME, organism-based; settings: in vivo
[13] = Volume of distribution at steady state in mouse at 2 mg/kg, iv administered as infusion or 3 mg/kg, po via gavage measured up to 24 hrs by LC-MS analysis; assay type: ADME, organism-based; settings: in vivo, read-out: Vdss
[14] = Half life in mouse at 2 mg/kg, iv administered as infusion or 3 mg/kg, po via gavage measured up to 24 hrs by LC-MS analysis; assay type: ADME, organism-based; settings: in vivo
[15] = AUC in mouse at 2 mg/kg, iv administered as infusion measured up to 24 hrs by LC-MS analysis; assay type: ADME, organism-based; design: time < 24 hr, dose 2 mg/kg, route intravenous; settings: in vivo
[16] = AUC in mouse at 3 mg/kg, po via gavage measured up to 24 hrs by LC-MS analysis; assay type: ADME, organism-based; design: dose 3 mg/kg, time < 24 hr, route oral; settings: in vivo
[17] = Oral bioavailability in mouse at 3 mg/kg administered via gavage measured up to 24 hrs by LC-MS analysis; assay type: ADME, organism-based; settings: in vivo
[18] = target: T2, Interleukin-1 receptor-associated kinase 4 (Mus musculus, UniProt Q8R4K2); assay: Inhibition of IRAK4 in mouse whole blood; assay type: tissue-based
T2 sequence (Q8R4K2 whole entry): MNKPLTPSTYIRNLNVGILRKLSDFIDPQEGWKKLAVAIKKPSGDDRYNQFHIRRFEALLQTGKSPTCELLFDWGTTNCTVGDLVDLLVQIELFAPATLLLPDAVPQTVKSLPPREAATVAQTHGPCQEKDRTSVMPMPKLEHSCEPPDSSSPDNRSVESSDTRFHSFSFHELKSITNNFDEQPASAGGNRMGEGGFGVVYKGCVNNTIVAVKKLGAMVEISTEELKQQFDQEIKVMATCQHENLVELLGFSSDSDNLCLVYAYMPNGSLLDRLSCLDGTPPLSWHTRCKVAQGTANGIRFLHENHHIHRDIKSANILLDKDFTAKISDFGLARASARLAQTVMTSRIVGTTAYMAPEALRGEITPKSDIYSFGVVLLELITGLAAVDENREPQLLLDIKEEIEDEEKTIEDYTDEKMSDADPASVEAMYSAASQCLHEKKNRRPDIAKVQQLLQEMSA

[19] = target: T3, Interleukin-1 receptor-associated kinase 4 (Mus musculus) (UniProt Q8R4K2); assay: In vivo Inhibition of IRAK4 in BALB/c mouse assessed as suppression of TLR2-mediated LTA-induced IL-6 level in serum at 10 mg/kg, po treated 30 mins prior to LTA-stimulation and measured after 90 mins by ELISA relative to control; assay type: functional, organism-based
T3 sequence (whole entry): T2 sequence (Q8R4K2 whole entry)

[20] = target: T3, Interleukin-1 receptor-associated kinase 4 (Mus musculus); assay: In vivo Inhibition of IRAK4 in BALB/c mouse assessed as suppression of TLR2-mediated LTA-induced IL-6 level in serum at 25 mg/kg, po treated 30 mins prior to LTA-stimulation and measured after 90 mins by ELISA relative to control; assay type: functional, organism-based
[21] = target: T3, Interleukin-1 receptor-associated kinase 4 (Mus musculus); assay: In vivo Inhibition of IRAK4 in BALB/c mouse assessed as suppression of TLR2-mediated LTA-induced IL-6 level in serum at 50 mg/kg, po treated 30 mins prior to LTA-stimulation and measured after 90 mins by ELISA relative to control; assay type: functional, organism-based
[22] = Clearance in mouse at 2 mg/kg, iv administered as infusion or 10 mg/kg, po via gavage measured up to 24 hrs by LC-MS analysis; assay type: ADME, organism-based; settings: in vivo
[23] = Volume of distribution at steady state in mouse at 2 mg/kg, iv administered as infusion or 10 mg/kg, po via gavage measured up to 24 hrs by LC-MS analysis; assay type: ADME, organism-based; settings: in vivo, read-out: Vdss
[24] = Half life in mouse at 2 mg/kg, iv administered as infusion or 10 mg/kg, po via gavage measured up to 24 hrs by LC-MS analysis; assay type: ADME, organism-based; settings: in vivo
[25] = AUC in mouse at 10 mg/kg, po via gavage measured up to 24 hrs by LC-MS analysis; assay type: ADME, organism-based; design: time < 24 hr, dose 10 mg/kg, route oral; settings: in vivo
[26] = Oral bioavailability in mouse at 10 mg/kg administered via gavage measured up to 24 hrs by LC-MS analysis; assay type: ADME, organism-based; settings: in vivo
[27] = Time during which drug concentration exceeds IC50 for IRAK4 in mouse whole blood in mouse at 10 mg/kg, po; assay type: ADME, organism-based; settings: in vivo
[28] = Drug uptake in LTA-treated BALB/c mouse serum at 25 mg/kg, po treated 30 mins prior to LTA-stimulation and measured after 90 mins by LC-MS analysis; assay type: ADME, organism-based; settings: read-out: Drug uptake
[29] = Drug uptake in LTA-treated BALB/c mouse serum at 10 mg/kg, po treated 30 mins prior to LTA-stimulation and measured after 90 mins by LC-MS analysis; assay type: ADME, organism-based; settings: read-out: Drug uptake
[30] = Drug uptake in LTA-treated BALB/c mouse serum at 50 mg/kg, po treated 30 mins prior to LTA-stimulation and measured after 90 mins by LC-MS analysis; assay type: ADME, organism-based; settings: read-out: Drug uptake

Compound	IC50 [1] [nM]	IC50 [2] [nM]	Stability [3] [%]	remaining at 10 min [4] [%]	Papp A→B [6] [×10⁻⁶ cm/s]	IC50 [10] [nM]	Ratio IC50 [5]	also measured
CC(C)Nc1cc(Nc2ccc3ncsc3c2)ncc1C(=O)NCCc1ccc(S(N)(=O)=O)cc1	5.7	1200	17	38	< 1.5		280	IC50 [7]: 900 nM
C[C@@H]1C[C@H]2[C@@H]3CCC4=CC(=O)C=C[C@]4(C)[C@@]3(F)[C@@H](O)C[C@]2(C)[C@@]1(O)C(=O)CO [DEXAMETHASONE]								inhibition in vivo at 3 mg/kg [8]: 45%; inhibition in vivo at 3 mg/kg [9]: 37%
CC(C)Nc1cc(Nc2ccc3ncsc3c2)ncc1C(=O)NCC(F)(F)C(C)(C)O		570	71	61		2800	320	
CNC(=O)c1cnc(Nc2ccc3ncsc3c2)cc1N[C@@H](c1ccccc1)[C@H](O)CO			90	22	< 1.5			
CC(C)Nc1cc(Nc2ccc3ncsc3c2)ncc1C(=O)NC[C@@H](F)C(C)(C)O	2.4	480	92	86		2000	270	
CC(C)(O)CCNC(=O)c1cnc(Nc2ccc3ncsc3c2)cc1NC1CC1		290	65	99		900	200	
Cc1nc2ccc(Nc3cc(NC(C)C)c(C(=O)NC[C@@H](F)C(C)(C)O)cn3)cc2s1	8	1700	92	78		12000	3500	Ratio IC50 [11]: 6200
CNC(=O)c1cnc(Nc2ccc3ncsc3c2)cc1N[C@H](CO)Cc1ccccc1			46	29	< 1.5			
CC(C)Nc1cc(Nc2ccc3nsnc3c2)ncc1C(=O)NC[C@@H](F)C(C)(C)O		320	74	80		1160	93	Ratio IC50 [11]: > 15000
CC(C)(O)[C@H](F)CNC(=O)c1cnc(Nc2ccc3ncsc3c2)cc1NC1CC1	2.4	230	90	89	8.1	810	170	IC50 [18]: 240 nM; inhibition [19]: 50%; inhibition [20]: 95%; inhibition [21]: 99%; clearance [22]: 47 mL/min/kg; Vd [23]: 2.1 L/kg; half-life [24]: 2.2 h; AUC at 24 h [15]: 1.6 µM·h; AUC at 24 h [25]: 3.3 µM·h; bioavailability [26]: 40%; T>IC50 [27]: <= 3 hr; concentration at 1.5 h [28]: 4.5 µM; concentration at 1.5 h [29]: 0.41 µM; concentration at 1.5 h [30]: 9.6 µM
CC(C)Nc1cc(Nc2ccc3ncsc3c2)ncc1C(=O)NCCCO	24	6900	84	87			16	

Further lines, with some results ahead:

IC50 [1] [nM]	IC50 [2] [nM]	Stability [3] [%]	remaining at 10 min [4] [%]	Papp A→B [6] [×10⁻⁶ cm/s]	IC50 [10] [nM]	Compound	Ratio IC50 [5]	also measured
	730					CC(C)(O)[C@@H](F)CNC(=O)c1cnc(Nc2ccc3ncsc3c2)cc1NC1CC1	110	
21	4500			21		CNC(=O)c1cnc(Nc2ccc3ncsc3c2)cc1NC(C)C	28	
8.7	640	93	89	3.8	210	CC(C)Nc1cc(Nc2ccc3nonc3c2)ncc1C(=O)NC[C@@H](F)C(C)(C)O	190	Ratio IC50 [11]: 420; clearance [12]: 14 mL/min/kg; Vd [13]: 3.2 L/kg; half-life [14]: 3.6 h; AUC at 24 h [15]: 4.7 µM·h; AUC at 24 h [16]: 4.6 µM·h; bioavailability [17]: 65%
12		52	32			CCCNC(=O)c1cnc(Nc2ccc3ncsc3c2)cc1NC(C)C		
15		74	45			CCNC(=O)c1cnc(Nc2ccc3ncsc3c2)cc1NC(C)C		
	290	79	68		1100	CC(C)Nc1cc(Nc2ccc3ncsc3c2)ncc1C(=O)NCCC(C)(C)O	104	
7		55	31			CCCCNC(=O)c1cnc(Nc2ccc3ncsc3c2)cc1NC(C)C		
	410	78	85		650	CC(C)Nc1cc(Nc2ccn3nccc3c2)ncc1C(=O)NC[C@@H](F)C(C)(C)O	> 380	Ratio IC50 [11]: 240
19	2900					CC(C)Nc1cc(Nc2ccc3ncsc3c2)ncc1C(=O)NC[C@@H](C)C(C)(C)O		
